According to ChEMBL document CHEMBL1201862, “PubChem BioAssay data set” (2004):
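Interpolation was linear, between the two tested concentrations surrounding the appropriate level; five concentrations were tested over 48 hours in 96-well plates. GI50 = concentration required for 50% inhibition of growth.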 Active and inactive are the calls of the source. Cut-off read from the data, not from the text of the source: active = GI50 up to about 1.1 µM and inactive = higher.

Tests used:
Assay in all cases: NCI-60 cell line screen, 48 h
SW-620 = tested on: SW-620
CAKI-1 = tested on: CAKI-1
MOLT-4 = tested on: MOLT-4
Malme-3M = tested on: Malme-3M
OVCAR-8 = tested on: OVCAR-8
UO-31 = tested on: UO-31
HCT-15 = tested on: HCT-15
A549 = tested on: A549
RPMI-8226 = tested on: RPMI-8226
RXF 393 = tested on: RXF 393
IGROV-1 = tested on: IGROV-1
HCC 2998 = tested on: HCC 2998
KM12 = tested on: KM12
HL-60 = tested on: HL-60
HCT-116 = tested on: HCT-116
NCI-H460 = tested on: NCI-H460
UACC-257 = tested on: UACC-257
OVCAR-4 = tested on: OVCAR-4
DMS-273 = tested on: DMS-273
MDA-MB-231 = tested on: MDA-MB-231

Structure (SMILES) | GI50 (SW-620) | GI50 (CAKI-1) | GI50 (MOLT-4) | GI50 (Malme-3M) | GI50 (OVCAR-8) | GI50 (UO-31) | GI50 (HCT-15) | GI50 (A549) | GI50 (RPMI-8226) | GI50 (RXF 393) | GI50 (IGROV-1) | GI50 (HCC 2998) | GI50 (KM12) | GI50 (HL-60) | GI50 (HCT-116) | GI50 (NCI-H460) | GI50 (UACC-257) | GI50 (OVCAR-4) | GI50 (DMS-273) | GI50 (MDA-MB-231)
CC[C@@H]1OC2(C)CC(S(=O)(=O)c3ccccc3)CC1O2 (stereo partly specified) | > 100 µM (inactive) | < 0.01 µM (active) | > 100 µM (inactive) | > 100 µM (inactive) | > 100 µM (inactive) | > 100 µM (inactive) | > 100 µM | > 100 µM (inactive) | > 100 µM (inactive) | > 100 µM (inactive) | > 100 µM (inactive) | > 100 µM (inactive) | > 100 µM (inactive) | > 100 µM (inactive) | > 100 µM (inactive) | > 100 µM (inactive) | > 100 µM (inactive) | > 100 µM (inactive) | > 100 µM (inactive) | 
CC(=O)CC(=O)NC=O | > 100 µM (inactive) | > 100 µM (inactive) | > 100 µM (inactive) | > 100 µM (inactive) | > 100 µM (inactive) | > 100 µM (inactive) | > 100 µM | > 100 µM (inactive) | > 100 µM (inactive) | > 100 µM (inactive) | > 100 µM (inactive) | > 100 µM (inactive) | > 100 µM (inactive) | > 100 µM (inactive) | > 100 µM (inactive) | > 100 µM (inactive) | > 100 µM (inactive) | > 100 µM (inactive) | > 100 µM (inactive) | 
COc1ccc(CCc2ccccc2CC(=O)O)cc1 | > 100 µM (inactive) | > 100 µM (inactive) | > 100 µM (inactive) | > 100 µM (inactive) | > 100 µM (inactive) | > 100 µM (inactive) | > 100 µM | > 100 µM (inactive) | > 100 µM (inactive) | > 100 µM (inactive) | > 100 µM (inactive) | > 100 µM (inactive) | > 100 µM (inactive) | > 100 µM (inactive) | > 100 µM (inactive) | > 100 µM (inactive) | > 100 µM (inactive) | > 100 µM (inactive) | > 100 µM (inactive) | 
O=C1C=CN(C2OC(CO)C(O)C2O)C(=O)C1 (stereo unspecified) | 32.5 µM (inactive) | 22.3 µM (inactive) | 8.34 µM (inactive) |  |  | 29.7 µM (inactive) | 17.9 µM | 17.8 µM (inactive) | 5.47 µM (inactive) | 372 µM (inactive) | 223 µM (inactive) |  |  | 9.46 µM (inactive) | 1.51 µM (inactive) | 0.942 µM (active) | 1130 µM (inactive) |  | 1730 µM (inactive) | 363 µM (inactive)
CC(=O)N(C(C)=O)c1c(N)n(C)c(=O)[nH]c1=O | > 100 µM (inactive) | > 100 µM (inactive) | > 100 µM (inactive) | > 100 µM (inactive) | > 100 µM (inactive) | > 100 µM (inactive) | > 100 µM | > 100 µM (inactive) | > 100 µM (inactive) | > 100 µM (inactive) | > 100 µM (inactive) | > 100 µM (inactive) | > 100 µM (inactive) | > 100 µM (inactive) | > 100 µM (inactive) | > 100 µM (inactive) | > 100 µM (inactive) | > 100 µM (inactive) | > 100 µM (inactive) | 
CC(=O)OC(C)(C)/C=C/C(=O)[C@](C)(O)[C@H]1[C@H](O)C[C@@]2(C)[C@@H]3CC=C4[C@@H](C=C(O)C(=O)C4(C)C)[C@]3(C)C(=O)C[C@]12C [CUCURBITACIN E] | 0.0438 µM (active) | 0.0216 µM (active) | 0.246 µM (active) | 0.0366 µM (active) | 0.166 µM (active) | 0.0235 µM (active) | 0.0278 µM | 0.0296 µM (active) | 0.041 µM (active) | 0.0177 µM (active) | 0.0366 µM (active) | 0.0501 µM (active) | 0.504 µM (active) | 0.0313 µM (active) | 0.034 µM (active) | 0.0222 µM (active) | 0.0385 µM (active) | 0.0305 µM (active) | 0.0241 µM (active) | 0.0537 µM (active)
